The values that follow come from patent US10091997B2, “Composition for inhibition of insect host sensing” (Vanderbilt University, priority 2010, dated 2018).

One test has as its system AgORco+AgOR10. Description: plate-based Fluo-4 Ca2+ imaging in stable HEK293 cell lines. Set-up: species or system Anopheles gambiae. The following applies: AgORco+AgOR10 HEK293 cells; not seen in control cells. From the text: (§1) For transient transfections, ORs were cloned into pCI (Promega) and transfected into Flp-In™ T-REx™293 cell lines (Invitrogen) with Fu GENE6 (Roche). For the creation of stable cell lines, a cell culture expression vector capable of expressing AgORco in conjunction with a conventional OR, pcDNA5/FRT/TO (Invitrogen) was modified to create two individual expression cassettes each under the control of a separate CMV/TetO2 promoter and a BGH poly-adenylation signal. Cells (as above) were transfected with the modified pcDNA5 plasmid along with POG44 (a Flp recombinase expression plasmid) to facilitate site-specific recombination. Stable cell lines were selected using Hygromycin B (Invitrogen). Cells were maintained in DMEM (Invitrogen) supplemented with 10% Tetracycline-free FBS (HyClone) and 15 μg/ml Blasticidin. For fluorometric Ca^2+ measurements, stable lines expressing ORs of interest were seeded at 20,000 cells/well in black wall, poly-lysine coated 384-well cell culture plates (Greiner) and treated with 0.3 μg/μl tetracycline (Sigma) overnight to induce OR expression. Cells were dye-loaded with 1.8 μM Fluo-4 AM (Molecular Probes), 2.5 mM Probenecid (Molecular Probes) in assay buffer (20 mM HEPES, 1×HBSS) for 45 minutes at 37° C. in 5% CO2 prior to each assay. […] Baseline readings were taken for 20 s before automated addition of compound previously diluted in DMSO and assay buffer. […]

For a further test, the target named is T1, DmOR83b (Drosophila melanogaster, UniProt Q9VNB5).
T1 construct: expressed in transfected cells; host or cells: Flp-In T-REx 293 (HEK), transient, pCI vector, GFP co-transfected
T1 sequence (Q9VNB5 1-486): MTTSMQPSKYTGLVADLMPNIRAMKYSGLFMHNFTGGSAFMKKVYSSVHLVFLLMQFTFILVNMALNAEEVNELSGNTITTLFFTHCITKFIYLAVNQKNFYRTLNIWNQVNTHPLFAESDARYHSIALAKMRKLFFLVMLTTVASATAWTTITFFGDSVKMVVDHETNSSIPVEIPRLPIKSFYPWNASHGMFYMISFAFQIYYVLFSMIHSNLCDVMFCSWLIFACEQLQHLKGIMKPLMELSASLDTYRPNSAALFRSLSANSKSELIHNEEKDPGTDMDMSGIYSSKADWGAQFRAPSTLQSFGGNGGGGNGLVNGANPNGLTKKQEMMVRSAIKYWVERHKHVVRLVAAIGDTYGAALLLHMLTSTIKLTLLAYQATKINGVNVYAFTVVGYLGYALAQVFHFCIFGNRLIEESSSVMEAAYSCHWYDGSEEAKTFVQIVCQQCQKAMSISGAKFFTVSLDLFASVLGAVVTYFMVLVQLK
Description: whole-cell patch clamp, HEK cells transiently transfected with DmOR83b. In kind it is cell-based. The following applies: HEK cells expressing DmOR83b, −60 mV.
Source text: as §1, with “Blasticidin.” for “Blasticidin. For fluorometric Ca^2+ measurements, stable lines expressing ORs of interest were seeded at 20,000 cells/well in black wall, poly-lysine coated 384-well cell culture plates (Greiner) and treated with 0.3 μg/μl tetracycline (Sigma) overnight to induce OR expression. Cells were dye-loaded with 1.8 μM Fluo-4 AM (Molecular Probes), 2.5 mM Probenecid (Molecular Probes) in assay buffer (20 mM HEPES, 1×HBSS) for 45 minutes at 37° C. in 5% CO2 prior to each assay.”
Currents from OR-expressing HEK293 cells were amplified with an Axopatch 200b Amplifier (Axon Instruments) and digitized through a Digidata 1322A (Axon Instruments). Electrophysiological data was recorded and analyzed using pCLAMP 10 (Axon Instruments). […]
(Patch clamp records ionic current or voltage across a cell membrane.)

For `CCc1ccc(NC(=O)CSc2nnc(-c3cccnc3)n2CC)cc1` [VUAA1], in the test on AgORco+AgOR10, the “Ca2+ imaging response” value is on record as “concentration-dependent responses”. For the same molecule, the whole-cell currents entry at DmOR83b is listed as “robust inward currents”.
